Biological target: T1, BCL-xL (Homo sapiens, UniProt Q07817)
T1 construct: endogenous in cells
Assay: BCL-xL degradation by immunoblot in 293T cells
Assay type: cell-based
Details: for DC50: 293T cells, four concentrations, 16 h, Fig. 2b, read-out: BCL-xL DC50; for Dmax: HEK-293T
Procedure: The DC50 and Dmax were calculated using Prism based on the ImageJ-quantified western blots in Supplementary Fig. 4. c, d AlphaLISA assay to determine the formation of BCL-xL/PROTAC/VHL-ELOC-ELOB (VCB) (c) or BCL-2/PROTAC/VCB (d) ternary complex in a cell-free condition. Data represent the mean of a single experiment with 2 technical replicates. Similar results were obtained in one more independent experiment. e, f NanoBRET assays evaluating intracellular BCL-xL/PROTAC/VCB (e) or BCL-2/PROTAC/VCB (f) ternary complex formation. […] Data are expressed as mean ± s.e.m. of three biological replicates. Source data are provided as a Source data file.
Representative immunoblots are shown in (a–d) and β-actin was used as a loading control in all immunoblot analyses. The normalized protein content in the immunoblots is presented as mean values ± s.e.m. (n = 3 biologically independent experiments) in the bar graph (bottom panel). e, f The formation of BCL-xL/PROTAC/VCB (e) and BCL-2/PROTAC/VCB (f) ternary complexes in a cell-free condition was determined by AlphaLISA assay. Data represent the mean of a single experiment with 2 technical replicates. […] Source data are provided as a Source data file.
Cells were collected, washed once with ice-cold phosphate-buffered saline, pH 7.2 (PBS, cat. no. 20012027; Thermo Fisher Scientific) and lysed in RIPA lysis buffer (Cat. No. BP-115DG, Boston Bio Products, Ashland, MA, USA) supplemented with protease and phosphatase inhibitor cocktails (Cat. No. PPC1010, Sigma-Aldrich, St. Louis, MO, USA) through sonication. The samples were centrifuged at 14,000 r.p.m. for 5 min and the supernatants were transferred into a new tube. The protein concentration in the supernatants was determined using the Pierce BCA protein Assay kit (cat. no. 23225, Thermo Fisher Scientific). The protein concentration was normalized, and the samples were reduced in 4× Laemmli’s SDS-sample buffer (cat. no. BP-110R, Boston Bio Products) and denatured at 95 °C for 5 min. An equal amount of protein samples (20–40 μg per lane) were resolved using precast 4–20% Tris-glycine gels (Mini-PROTEAN TGX, cat. no. 456–1094, Bio-Rad), and resolved proteins were transferred onto 0.2-µm pore size polyvinylidene difluoride (PVDF) blotting membranes (cat. no. LC2002, Thermo Fisher Scientific) using mini trans-blot electrophoretic transfer cell (Bio-Rad). The membranes were blocked with non-fat dry milk (5% wt/vol) in 1× Tris-buffered saline-Tween-20 (TBST, cat. no. J77500, Affymetrix) for 1 h at room temperature, and were subsequently probed with primary antibodies at a predetermined optimal concentration in non-fat dry milk (5% wt/vol in TBST) overnight at 4 °C. The membranes were washed three times (5 min each) in TBST and then incubated with horse radish peroxidase (HRP)-conjugated secondary antibodies for 1 h at room temperature. Following sufficient washing with TBST, the membranes were exposed with chemiluminescent HRP substrate (cat. no. WBKLS0500, MilliporeSigma), and the signal was detected using the ChemiDoc MP Imaging System (Bio-Rad) and quantified using the ImageJ (v1.53a) software from NIH.

T1 sequence (Q07817 whole entry): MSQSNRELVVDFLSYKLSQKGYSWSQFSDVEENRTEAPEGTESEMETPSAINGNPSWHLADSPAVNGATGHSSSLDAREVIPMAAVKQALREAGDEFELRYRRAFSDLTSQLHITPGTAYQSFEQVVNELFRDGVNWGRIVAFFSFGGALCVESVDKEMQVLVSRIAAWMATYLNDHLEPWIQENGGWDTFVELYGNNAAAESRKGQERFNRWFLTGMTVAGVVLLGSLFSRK

Row | DC50 [nM] | Dmax [%] | SMILES
1 | 12.8 | 85 | Cc1ncsc1-c1ccc([C@H](C)NC(=O)[C@@H]2C[C@@H](O)CN2C(=O)[C@@H](NC(=O)CCCCCC(=O)N2CCN(CC3(C)CCC(c4ccc(Cl)cc4)=C(CN4CCN(c5ccc(C(=O)NS(=O)(=O)c6ccc(N[C@H](CCN7CCOCC7)CSc7ccccc7)c(S(=O)(=O)C(F)(F)F)c6)cc5)CC4)C3)CC2)C(C)(C)C)cc1 (stereo partly drawn) [PPC7]
2 | 12.9 | 94 | Cc1ncsc1-c1ccc([C@H](C)NC(=O)[C@@H]2C[C@@H](O)CN2C(=O)[C@@H](NC(=O)CCCCCCC(=O)N2CCN(CC3(C)CCC(c4ccc(Cl)cc4)=C(CN4CCN(c5ccc(C(=O)NS(=O)(=O)c6ccc(N[C@H](CCN7CCOCC7)CSc7ccccc7)c(S(=O)(=O)C(F)(F)F)c6)cc5)CC4)C3)CC2)C(C)(C)C)cc1 (stereo partly drawn) [PPC8]
3 | 12.8 | 96 | Cc1ncsc1-c1ccc([C@H](C)NC(=O)[C@@H]2C[C@@H](O)CN2C(=O)[C@@H](NC(=O)CCCCCCCC(=O)N2CCN(CC3(C)CCC(c4ccc(Cl)cc4)=C(CN4CCN(c5ccc(C(=O)NS(=O)(=O)c6ccc(N[C@H](CCN7CCOCC7)CSc7ccccc7)c(S(=O)(=O)C(F)(F)F)c6)cc5)CC4)C3)CC2)C(C)(C)C)cc1 (stereo partly drawn) [PPC9]

From PMC8617031, “Development of a BCL-xL and BCL-2 dual degrader with improved anti-leukemic activity,” (Nature Communications, 2021)
